Laboratory results published in US10662407B2, “Method for controlling differentiation of embryonic stem cells into adipocytes or kidney precursor cells by regulating SIRT1 expression” (INDUSTRIAL COOPERATION FOUNDATION CHONBUK NATIONAL …, priority 2015, dated 2020).

Key:
[1] = tested on: mouse embryonic stem cells (SIRT1+/+; WT), differentiation into adipocytes; test: Oil Red O staining of embryonic stem cells differentiated into adipocytes; assay type: cell-based; conditions: for differentiation into adipocytes versus group without inhibitor (Oil Red O): EX527 10 μM, FIG. 4
Procedure: In the present disclosure, in order to determine whether differentiation of embryonic stem cells into adipocytes was affected by the presence or absence of SIRT1 protein expression, degrees of differentiation of the embryonic stem cells (SIRT1+/+; WT) expressing the SIRT1 genes and the mouse embryonic stem cells lacking SIRT1 genes (SIRT1−/−; KO), prepared in Example 1, were determined, and when EX527 (10 μM, Tocris, UK), SIRT1 inhibitor, was treated with SIRT1+/+ embryonic stem cells, the degree of lipid differentiation according to SITRT1 inhibition was determined.
In the hanging-drop culture, 1000 embryonic stem cells were added into 20 μl to prepare a single embryoid body, the process of induction into adipocytes was cultured by inoculating 15 cultures into each well using a 6-well plate.
The medium for differentiation into adipocyte was prepared by adding 85 nM insulin (Sigma, USA), 2 nM triiodothyronine (Sigma, USA) and 2 μM rosiglitazone (Sigma, USA) to DMEM and embryoid bodies were cultured, the medium exchange was performed daily.
In addition, SIRT1 inhibitor EX527 was added to SIRT1+/+ embryonic stem cells until the early 5th day of differentiation into adipocytes.
Oil Red O staining was performed to determine whether the differentiation into adipocytes was successfully performed in mouse embryonic stem cells differentiated for 21 days in Example 2.
First, SIRT1+/+ cells, SIRT1−/− cells, and SIRT1+/+ cells differentiated by treatment with SIRT1 inhibitor were treated with 10% formaldehyde to fix the cells, the formaldehyde was washed with phosphate buffered saline three times and then was treated with 60% isopropanol. Then, 2 ml Oil Red O staining solution was added and the mixture was stained at room temperature for 30 minutes in the dark, and then was washed with phosphate buffered saline three times.
Oil Red O staining was performed on the lipid droplets in the differentiated adipocytes. After staining, the cells were observed using a microscope to identify red-stained fat adipocytes.
When the observation was completed, stained dye in adipocyte was extracted using 1 ml isopropanol per well and optical density (OD) was measured at 500 nm with an ELISA reader. The Oil Red O staining solution is a solution of 500 mg of Oil Red O dye (Sigma, USA) in 100 ml isopropanol, mixed with distilled water at a ratio of 6:4 and filtered using a 0.45 μm filter.
In the same manner as in Example 2, differentiation of embryonic stem cells into adipocytes was induced. The samples were divided into various groups: a group treated for 0 to 5 days at the early stage of differentiation, a group treated for 7 to 21 days at the latter stage of differentiation, and a group treated for 0 to 21 days during the entire differentiation period, which were treated with the SIRT1 inhibitor.

PPARγ mRNA expression = test: PCR of PPARγ mRNA during adipocyte differentiation of embryonic stem cells; assay type: cell-based, mouse; conditions: SIRT1+/+ cells treated with EX527 10 μM, harvested 7 and 10 days after induction, FIG. 3
Procedure: (§1) In the present disclosure, in order to confirm the mechanism of regulating the differentiation of embryonic stem cells into adipocytes by SIRT1, in the step of differentiating into adipocytes, mRNA expression levels of peroxisome proliferator-activated receptors-γ (PPARγ), CCAAT/enhancer-binding protein-α (C/EBP α) and fatty acid binding protein 4 (FABP4) in adipocytes were measured by a PCR method. Each primer used in the PCR method was as represented in Table 1 and was manufactured by Bioneer (Korea). GAPDH was used as a control group for the reliability of the PCR method.
(§2) In the same manner as in Example 2, differentiation of embryonic stem cells into adipocytes was induced, each cell was harvested on 7 and 10 days after induction of lipid differentiation, and total RNAs were extracted using TRIzol reagent (Life Technology, USA). The extracted RNAs were synthesized into cDNAs using a cDNA synthesis kit (Roche, Germany) and a PCR method was carried out using the primers represented in Table 1.

C/EBP α mRNA expression = test: PCR of C/EBP α mRNA during adipocyte differentiation of embryonic stem cells; assay type: cell-based, mouse; conditions: SIRT1+/+ cells treated with EX527 10 μM, harvested 7 and 10 days after induction, FIG. 3
Procedure: as §1, §2

FABP4 mRNA expression = test: PCR of FABP4 mRNA during adipocyte differentiation of embryonic stem cells; assay type: cell-based, mouse; conditions: SIRT1+/+ cells treated with EX527 10 μM, harvested 7 and 10 days after induction, FIG. 3
Procedure: as §1, §2

Six2 mRNA expression = test: Quantitative PCR of Six2 mRNA during differentiation of embryonic stem cells into kidney precursor cells; assay type: cell-based, mouse; conditions: for mRNA expression level of Six2: embryonic stem cells, EX527 5-10 uM, resveratrol 10-20 uM, FIG. 7B
Procedure: (§3) The cell culture media, from which Leukemia Inhibitory Factor (LIF; Milipore, USA) was removed, were treated with 100 nmol/L Retinoic acid and 10 ng/mL Activin A, and then mRNA expression levels of Six2 and WT1, kidney precursor cells, were measured. In the process of induction into kidney precursor cells, embryonic stem cells were inoculated into wells of a 6-well plate to be cultured therein.
(§4) The media for differentiation into kidney precursor cells were cultured by adding 2 mM Gluta MAX™ (Gibco, USA), 1× Non-essential aminoacid, (1×NEAA; Gibco, USA), 0.1 mM beta-mercaptoethanol (Invitrogen, USA) and […] to DMEM.
(§5) In the step for differentiation of embryonic stem cells into kidney precursor cells, mRNA expression levels of Six2 and WT1, indicators of kidney precursor cells, were measured by a PCR method. Each primer used in the PCR method was as represented in Table 2 and was manufactured by Bioneer (Korea). GAPDH was used as a control group for the reliability of the PCR method.
as §2, with “6,” for “2,”, “kidney precursor cells” for “adipocytes”, “day 11 of differentiation induction” for “7”, “then” for “10 days after induction of lipid differentiation, and”, “2.” for “1.”
(§6) In order to confirm the differentiation of embryonic stem cells into kidney precursor cells according to the inhibition or promotion of SIRT1 protein expression, the differentiation of the embryonic stem cells (SIRT1+/+; WT) expressing the SIRT1 genes, which were prepared in Example 1, into kidney precursor cells was confirmed. The differentiation was confirmed by protein expression levels of Six2 and WT1, indicators of kidney precursor cells.
(§7) In the step for differentiation of embryonic stem cells into kidney precursor cells, mRNA expression levels of Six2 and WT1, indicators of kidney precursor cells, were measured by a quantitative PCR method.

WT1 mRNA expression = test: Quantitative PCR of WT1 mRNA during differentiation of embryonic stem cells into kidney precursor cells; assay type: cell-based, mouse; conditions: for mRNA expression level of WT1: embryonic stem cells, EX527 5-10 uM, resveratrol 10-20 uM, FIG. 7A
Procedure: as §3, §4, §5
as §2, with “6,” for “2,”, “kidney precursor cells” for “adipocytes”, “day 11 of differentiation induction” for “7”, “then” for “10 days after induction of lipid differentiation, and”, “2.” for “1.”
as §6, §7

| SMILES | differentiation into adipocytes versus group without inhibitor (Oil Red O) ([1]; treated 0 to 5 days, early stage of differentiation) | differentiation into adipocytes versus group without inhibitor (Oil Red O) ([1]; treated 0 to 21 days, entire differentiation period) | differentiation into adipocytes versus group without inhibitor (Oil Red O) ([1]; treated 7 to 21 days, latter stage of differentiation) | adipocyte differentiation (lipid droplets, Oil Red O staining, microscope) versus SIRT1+/+ cells ([1]; SIRT1+/+ cells, EX527 10 μM until early 5th day of differentiation, 21 days differentiation, FIG. 2A) | reduction of adipocyte differentiation (absorbance at 500 nm of extracted Oil Red O) ([1]; SIRT1+/+ cells, EX527 10 μM until early 5th day, compared to SIRT1+/+ cells, FIG. 2B) | mRNA expression of PPARγ (PPARγ mRNA expression) | mRNA expression of C/EBP α (C/EBP α mRNA expression) | mRNA expression of FABP4 (FABP4 mRNA expression) | mRNA expression level of Six2 (Six2 mRNA expression) | mRNA expression level of Six2 (Six2 mRNA expression; listed as SIRT1 inhibitor) | mRNA expression level of WT1 (WT1 mRNA expression) | mRNA expression level of WT1 (WT1 mRNA expression; listed as SIRT1 inhibitor) | expression of Six2 compared with control (Six2 mRNA expression; resveratrol 20 μM) | expression of WT1 compared with control (WT1 mRNA expression; resveratrol 20 μM) |
| --- | --- | --- | --- | --- | --- | --- | --- | --- | --- | --- | --- | --- | --- | --- |
| NC(=O)C1CCCc2c1[nH]c1ccc(Cl)cc21 (stereo not shown) [EX527, 6-Chloro-2,3,4,9-tetrahydro-1H-Carbazole-1-carboxamide] | decrease in differentiation into adipocytes | not significantly different | more differentiated into adipocytes | remarkably lower | about 38% | significantly decreased | significantly decreased | significantly decreased | significantly decreased | decreased | significantly decreased | decreased | – | – |
| Oc1ccc(C=Cc2cc(O)cc(O)c2)cc1 [resveratrol] | – | – | – | – | – | – | – | – | significantly increased | – | significantly increased | – | significantly promoted | significantly promoted |
